Source: the CheMixHub ionic liquid set
“And” between values parts separate entries of the source, which are not always exact repeats. Equal values may be shown once.

Assay: xn = mol fraction of the nth substance listed

CCCC[P+](CCCC)(CCCC)CCCC.[Br-] + OCC(O)CO + O
viscosity [mPa·s], 101.3 kPa
Conditions	x1 = 0.03663, x2 = 0.07337	x1 = 0.06194, x2 = 0.1241	x1 = 0.09824, x2 = 0.1968	x1 = 0.1305, x2 = 0.2615	x1 = 0.1725, x2 = 0.3455	x1 = 0.1845, x2 = 0.3695	x1 = 0.2344, x2 = 0.4696	x1 = 0.2594, x2 = 0.5196	x1 = 0.3007, x2 = 0.6023	x1 = 0.333, x2 = 0.667
293.15 K	9.46	24.1	60.1	99	156	170	249	300	393	468
298.15 K	7.51	18.5	45.8	72.1	109	120	176	212	276	329
303.15 K	6.25	15	35.7	55	79.9	90.9	130	154	198	235
308.15 K	5.21	12	28.3	42.6	62.8	67.8	96.5	118	145	172
313.15 K	4.15	9.9	22.1	32.4	47	49.3	66.5	88.4	99	116
318.15 K	3.74	8.49	18	26.4	38.4	41.4	57.6	67.5	83.2	97.1
323.15 K	3.26	7.02	14.5	21	29	31.2	42.5	50.4	57.9	68.4

CCCC[P+](CC)(CCCC)CCCC.[Br-] + OCCO
101 kPa, x1 = 0.333
Conditions	viscosity [mPa·s]
303.15 K	43.82
313.15 K	29.04
323.15 K	20.08
333.15 K	14.44
343.15 K	10.69
353.15 K	8.22

CCCC[P+](CCCC)(CCCC)CCCC.[Br-] + OCCO
101.3 kPa, x1 = 0.333
Conditions	viscosity [mPa·s]
293.15 K	122
323.15 K	29.9

CC[n+]1ccn(C)c1.O=S(=O)([O-])C(F)(F)F + OCCO
100 kPa
Conditions	electrical conductivity	viscosity [mPa·s]
293.15 K, x1 = 0.001	–	20.7
293.15 K, x1 = 0.007	–	20.4
293.15 K, x2 = 0.974	–	19.6
298.15 K, x1 = 0.001	0.0058 S/m and 0.0109 S/m	16.9
298.15 K, x2 = 0.798	–	16.62
303.15 K, x1 = 0.013	–	13.4
303.15 K, x2 = 0.0943	–	30.94
303.15 K, x2 = 0.2	–	23.4
308.15 K, x2 = 0.6019	–	13.71
308.15 K, x2 = 0.8964	–	11.78
313.15 K, x1 = 0.001	0.01 S/m and 0.0188 S/m	9.53
313.15 K, x2 = 0.408	–	13.87
313.15 K, x2 = 0.497	–	10.6
313.15 K, x2 = 0.808	1.51 S/m	8
318.15 K, x2 = 0.0943	–	19.42
323.15 K, x2 = 0.0943	–	16.91
323.15 K, x2 = 0.2021	–	13.96
323.15 K, x2 = 0.408	–	11.12

CCCC[P+](CCCC)(CCCC)CCCC.[Br-] + OCCO + O
viscosity [mPa·s], 101.3 kPa
Conditions	x1 = 0.0383, x2 = 0.0767	x1 = 0.06893, x2 = 0.1381	x1 = 0.09557, x2 = 0.1914	x1 = 0.1302, x2 = 0.2608	x1 = 0.1675, x2 = 0.3355	x1 = 0.1968, x2 = 0.3942	x1 = 0.2368, x2 = 0.4742	x1 = 0.2634, x2 = 0.5276	x1 = 0.3054, x2 = 0.6116	x1 = 0.333, x2 = 0.667
293.15 K	4.67	11.5	20.5	35.1	50.8	62	74.1	82.3	105	122
298.15 K	3.8	9.08	16.1	27.2	38.8	48.1	57	64.1	78.1	93.4
303.15 K	3.15	7.34	13	21.7	31	38.2	44.5	49.4	63.7	72.4
308.15 K	2.74	6.11	10.6	17.7	24.9	30.1	35.3	39.5	50.2	56.9
313.15 K	2.35	5.21	8.88	14.4	20.5	24.5	28.3	32.2	39.9	45.3
318.15 K	2.08	4.43	7.33	11.9	16.8	20.1	23.1	26.4	32.4	36.6
323.15 K	1.84	3.8	6.34	10.1	13.9	16.8	19	21.9	26.6	29.9

CCCC[P+](CC)(CCCC)CCCC.[Br-] + OCCOCCO
101 kPa, x1 = 0.333
Conditions	viscosity [mPa·s]
333.15 K	23.07
353.15 K	12.73

CCCCCCCC[n+]1ccc2ccccc2c1.O=S(=O)([N-]S(=O)(=O)C(F)(F)F)C(F)(F)F + OCCc1ccccc1
101 kPa
Conditions	viscosity [mPa·s]
298.15 K, x2 = 0.5766	60.64
298.15 K, x2 = 0.8956	18.61
308.15 K, x2 = 0.695	25
318.15 K, x2 = 0.1985	71.5
318.15 K, x2 = 0.3748	45.28
318.15 K, x2 = 0.5766	23.86
328.15 K, x2 = 0.0851	58.53
328.15 K, x2 = 0.3748	30.17
328.15 K, x2 = 0.5766	16.54
328.15 K, x2 = 0.695	11.76
338.15 K, x2 = 0.0851	39.05
338.15 K, x2 = 0.3748	21.2
338.15 K, x2 = 0.695	8.67

CC[n+]1ccn(C)c1.O=S(=O)([O-])C(F)(F)F + [I-].[Li+]
101 kPa, x1 = 1
Conditions	electrical conductivity [S/m]
288.15 K	0.605
298.15 K	0.859
333.15 K	2.24

CCCCCCCC[n+]1ccc2ccccc2c1.O=S(=O)([N-]S(=O)(=O)C(F)(F)F)C(F)(F)F + c1ccccc1
101 kPa
Conditions	viscosity [mPa·s]
298.15 K, x2 = 0	369
298.15 K, x2 = 0.4679	67
298.15 K, x2 = 0.673	10.93
298.15 K, x2 = 0.7443	5.93
308.15 K, x2 = 0.4679	40.99
318.15 K, x2 = 0	108.7
318.15 K, x2 = 0.332	47.7
318.15 K, x2 = 0.5663	16.93
328.15 K, x2 = 0.1505	50.4
328.15 K, x2 = 0.332	31.8
328.15 K, x2 = 0.673	4.75
338.15 K, x2 = 0.673	3.83
338.15 K, x2 = 0.8143	1.48
348.15 K, x2 = 0.332	16.29
348.15 K, x2 = 0.654	4.92
348.15 K, x2 = 0.8961	0.49

CCCCCCCC[n+]1ccc2ccccc2c1.O=S(=O)([N-]S(=O)(=O)C(F)(F)F)C(F)(F)F + c1ccncc1
101 kPa
Conditions	viscosity [mPa·s]
308.15 K, x2 = 0.0945	155
308.15 K, x2 = 0.8199	5.32
328.15 K, x2 = 0	67.9
328.15 K, x2 = 0.7274	4.82
338.15 K, x2 = 0.0945	38.2
338.15 K, x2 = 0.5383	10.76
338.15 K, x2 = 0.8199	3.09
348.15 K, x2 = 0.0945	26.97

CCCCCCCC[n+]1ccc2ccccc2c1.O=S(=O)([N-]S(=O)(=O)C(F)(F)F)C(F)(F)F + c1ccsc1
101 kPa
Conditions	viscosity [mPa·s]
298.15 K, x2 = 0.542	42.73
298.15 K, x2 = 0.821	7.64
308.15 K, x2 = 0.0964	158.7
308.15 K, x2 = 0.542	27.8
308.15 K, x2 = 0.6385	16.12
308.15 K, x2 = 0.821	6.02
308.15 K, x2 = 0.9065	2.78
318.15 K, x2 = 0	108.7
318.15 K, x2 = 0.0964	92.2
318.15 K, x2 = 0.2739	54.7
318.15 K, x2 = 0.9065	2.36
338.15 K, x2 = 0.3572	20.4
348.15 K, x2 = 0.4456	11.37
